In assay [1] the target is T1, Wee1 kinase domain (Homo sapiens, UniProt P30291).
T1 construct: Wee1 kinase domain was purchased from Carna (catalog #05-177); purchased Carna 05-177
Description: Wee1 Kinase Biochemical Assay (ADP-Glo). The conditions noted are these: 15 uM ATP. In a few lines: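 Compounds tested against 1 nM Wee1 kinase domain in Tris buffer containing 20 mM MgCl2, BSA and 2 mM DTT, with 15 uM ATP and poly(Lys,Tyr) substrate for 4 h at 25 °C. Luminescent ADP detection gave percent inhibition, normalized to DMSO and saturating inhibitor.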
A general note: ADP-Glo first removes unused ATP, then detects ADP through luciferase.

In assay [2] the test system is phosphorylation of Cdc2 Y15 (Wee1 substrate) in A427 cells. The experiment in a line: Phosphorylated Cdc2 MSD Electrochemiluminescence Assay. The conditions noted are these: Homo sapiens. The assay is classed as cell-based. In a few lines: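 Read-out: percent residual phospho-Cdc2 Y15 relative to DMSO and positive-control Wee1 inhibitor, measured by MSD electrochemiluminescence capture/detection antibody assay in cell lysates. A427 cells received duplicate 3-fold compound dilution series 20 h post-seeding, with 6 h total incubation at 37 °C.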

Setting [3] is: class symbols, 1 nM Wee1 enzyme, 4 hours at 25° C.
[4] abbreviates: A-427, class symbols, read-out: A427 pCDC2 MSD IC50.

Drawing on patent US20260166039A1 (SCHRÖDINGER, INC., priority 2022, published 2026), this text covers IC50 for 23 compounds.

Each structure is given as a SMILES string. Where two headings read alike, the source gives them in different places. Some results are limits rather than exact numbers.

T1 sequence (P30291 299-569 limits assumed): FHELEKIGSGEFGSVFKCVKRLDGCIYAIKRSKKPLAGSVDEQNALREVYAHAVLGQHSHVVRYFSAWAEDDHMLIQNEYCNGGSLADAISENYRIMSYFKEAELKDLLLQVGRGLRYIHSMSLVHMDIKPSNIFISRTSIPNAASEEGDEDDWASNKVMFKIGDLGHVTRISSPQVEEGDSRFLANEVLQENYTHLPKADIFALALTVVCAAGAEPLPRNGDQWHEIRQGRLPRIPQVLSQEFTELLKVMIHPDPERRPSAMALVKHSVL

One may read the IC50 as the midpoint of a concentration-inhibition curve. `C[C@H]1COC(=O)N1c1cccc(N2c3nc(Nc4ccc(N5CCN(C)CC5)cc4)ncc3[C@]3(C)COC(C)(C)C[C@H]23)n1` (single isomer, unassigned) [Example 235]: the IC50 in assay [1] (Wee1 kinase domain, ADP-Glo) is under 0.01 µM; in assay [2] (A-427, pCDC2 MSD), 0.1 to 1 µM.
As to `C[C@H]1COC(=O)N1c1cccc(N2c3nc(Nc4ccc([C@@H]5CCNC5)nc4)ncc3[C@@]3(C)COC(C)(C)C[C@@H]23)n1` (single isomer, unassigned) [Example 257], the IC50 in assay [1] (Wee1 kinase domain, ADP-Glo) is under 0.01 µM; in assay [2] (A-427, pCDC2 MSD), 0.1 to 1 µM.
For the compound `CC1(C)C[C@H]2N(c3cccc(N=S(C)(C)=O)n3)c3nc(Nc4ccn([C@H]5CCOC5)c(=O)c4)ncc3[C@@]2(C)CO1` (single isomer, unassigned) [Example 376], the IC50 in assay [1] (Wee1 kinase domain, ADP-Glo) is under 0.01 µM; in assay [2] (A-427, pCDC2 MSD), 0.1 to 1 µM.
With `CNCc1cccc(N2c3nc(NC(=O)[C@@H]4C[C@H]4c4ccccc4)ncc3[C@@]3(C)COC(C)(C)C[C@@H]23)n1` [Example 760, (1R,2R)-2-phenyl-N-((4bR,8aR)-4b,7,7-trimethyl-9-(6-((methylamino)methyl)pyridin-2-yl)-4b,5,7,8,8a,9-hexahydropyrano[3′,4′:4,5]pyrrolo[2,3-d]pyrimidin-2-yl)cyclopropane-1-carboxamide], the IC50 was under 0.01 µM in assay [1] (setting [3]) and 0.1 to 1 µM in assay [2] (setting [4]).
Consider `CN[C@H](c1cccc(N2c3nc(Nc4ccc(N5CCN(C)CC5)cc4)ncc3[C@@]3(C)COC(C)(C)C[C@@H]23)n1)C(F)(F)F` [Example 755, (4bR,8aR)-4b,7,7-trimethyl-N-(4-(4-methylpiperazin-1-yl)phenyl)-9-(6-((R)-2,2,2-trifluoro-1-(methylamino)ethyl)pyridin-2-yl)-4b,5,7,8,8a,9-hexahydropyrano[3′,4′:4,5]pyrrolo[2,3-d]pyrimidin-2-amine], for which the figures for the IC50 in assay [1] (setting [3]) and in assay [2] (setting [4]) were under 0.01 µM and 0.1 to 1 µM, respectively.
In the case of `CNCc1cccc(N2c3nc(Nc4ccc(C5CCN(C)CC5)c(C)c4)ncc3[C@@]3(C)COC(C)(C)C[C@@H]23)n1` (single isomer, unassigned) [Example 72], the IC50 in assay [1] (Wee1 kinase domain, ADP-Glo) was under 0.01 µM; in assay [2] (A-427, pCDC2 MSD), 0.1 to 1 µM.
Take `C[C@H]1COC(=O)N1c1cccc(N2c3nc(Nc4ccc(C5CNC5)cc4)ncc3[C@@]3(C)COC(C)(C)C[C@@H]23)n1` (single isomer, unassigned) [Example 310]: the half-maximal inhibitory concentration (IC50) in assay [1] (Wee1 kinase domain, ADP-Glo) is under 0.01 µM; in assay [2] (A-427, pCDC2 MSD) it was 0.1 to 1 µM.
In the case of `CN1CCC[C@H]1c1ccc(Nc2ncc3c(n2)N(c2cccc(N=S(C)(C)=O)n2)[C@@H]2CC(C)(C)OC[C@]32C)cc1` (single isomer, unassigned) [Example 126], the IC50 in assay [1] (Wee1 kinase domain, ADP-Glo) was under 0.01 µM; in assay [2] (A-427, pCDC2 MSD), under 0.1 µM.
`C[C@H]1COC(=O)N1c1cccc(N2c3nc(Nc4ccc(O[C@H]5CCNC5)cc4)ncc3[C@@]3(C)COC(C)(C)C[C@@H]23)n1` (single isomer, unassigned) [Example 329]: the IC50 in assay [1] (Wee1 kinase domain, ADP-Glo) was under 0.01 µM; in assay [2] (A-427, pCDC2 MSD) it was 0.1 to 1 µM.
Take `CC1(C)C[C@H]2N(c3cccc(N4CCOC4=O)n3)c3nc(Nc4ccc([C@H]5CCNC5)cc4)ncc3[C@@]2(C)CO1` (single isomer, unassigned) [Example 608]: the results for the IC50 in assay [1] (setting [3]) and in assay [2] (setting [4]) were under 0.01 µM and 0.1 to 1 µM, respectively.
As for `Cc1cc(Nc2ncc3c(n2)N(c2cccc(N=S(C)(C)=O)n2)[C@@H]2CC(C)(C)OC[C@]32C)ccc1[C@@H]1CCNC1` (single isomer, unassigned) [Example 143], the IC50 was under 0.01 µM in assay [1] (Wee1 kinase domain, ADP-Glo) and 0.1 to 1 µM in assay [2] (A-427, pCDC2 MSD).
Regarding `Cn1cc(Nc2ncc3c(n2)N(c2cccc(N=S(C)(C)=O)n2)[C@@H]2CC(C)(C)OC[C@]32C)nn1` (single isomer, unassigned) [Example 514], the values for the IC50 in assay [1] (setting [3]) and in assay [2] (setting [4]) were under 0.01 µM and 0.1 to 1 µM, respectively.
Consider `CN1CC[C@@H]2CN(c3ccc(Nc4ncc5c(n4)N(c4cccc(C(C)(C)O)n4)[C@@H]4CC(C)(C)OC[C@]54C)cc3)C[C@@H]21` (single isomer, unassigned) [Example 437], for which the values for the IC50 in assay [1] (setting [3]) and in assay [2] (setting [4]) were under 0.01 µM and 0.1 to 1 µM, respectively.
As for `Cc1cnc(Nc2ncc3c(n2)N(c2cccc(N=S(C)(C)=O)n2)[C@@H]2CC(C)(C)OC[C@]32C)cn1` (single isomer, unassigned) [Example 371], the half-maximal inhibitory concentration (IC50) in assay [1] (Wee1 kinase domain, ADP-Glo) is under 0.01 µM; in assay [2] (A-427, pCDC2 MSD), 0.1 to 1 µM.
In the case of `CC1(C)C[C@H]2N(c3cccc(N4CCOC4=O)n3)c3nc(Nc4ccc([C@@H]5CCNC5)cc4)ncc3[C@@]2(C)CO1` (single isomer, unassigned) [Example 607], the IC50 was under 0.01 µM in assay [1] (setting [3]) and 0.1 to 1 µM in assay [2] (setting [4]).
With `CNCc1cccc(N2c3nc(Nc4cccc(N5CCOCC5)c4)ncc3[C@@]3(C)COC(C)(C)C[C@@H]23)n1` (single isomer, unassigned) [Example 470], the figures for the IC50 in assay [1] (setting [3]) and in assay [2] (setting [4]) were under 0.01 µM and 0.1 to 1 µM, respectively.
Turning to `CN1CCN(c2ccc(Nc3ncc4c(n3)N(c3cccc(N5C(=O)OCC5(C)C)n3)[C@@H]3CC(C)(C)OC[C@]43C)cc2)CC1` (single isomer, unassigned) [Example 728], the IC50 in assay [1] (setting [3]) was under 0.01 µM; in assay [2] (setting [4]) it was 0.1 to 1 µM.
Turning to `CC1(C)C[C@H]2N(c3cccc(N4CCOC4=O)n3)c3nc(Nc4ccc([C@]5(C)CCNC5)cc4)ncc3[C@@]2(C)CO1` [Example 664, 3-(6-((4bR,8aR)-4b,7,7-trimethyl-2-((4-((S)-3-methylpyrrolidin-3-yl)phenyl)amino)-4b,7,8,8a-tetrahydropyrano[3′,4′:4,5]pyrrolo[2,3-d]pyrimidin-9(5H)-yl)pyridin-2-yl)oxazolidin-2-one], the IC50 in assay [1] (setting [3]) was under 0.01 µM; in assay [2] (setting [4]) it was 0.1 to 1 µM.
In the case of `CNCc1cccc(N2c3nc(Nc4ccc(N5CCOCC5)c(Cl)c4)ncc3[C@@]3(C)COC(C)(C)C[C@@H]23)n1` (single isomer, unassigned) [Example 14], the IC50 in assay [1] (Wee1 kinase domain, ADP-Glo) is under 0.01 µM; in assay [2] (A-427, pCDC2 MSD) it was 0.1 to 1 µM.
Regarding `Cc1cc(Nc2ncc3c(n2)N(c2cccc(N4CCCC4=O)n2)[C@@H]2CC(C)(C)OC[C@]32C)ccc1N1C[C@H]2C[C@@H]1CN2C` [Example 658, 1-(6-((4bR,8aR)-4b,7,7-trimethyl-2-((3-methyl-4-((1R,4R)-5-methyl-2,5-diazabicyclo[2.2.1]heptan-2-yl)phenyl)amino)-4b,7,8,8a-tetrahydropyrano[3′,4′:4,5]pyrrolo[2,3-d]pyrimidin-9(5H)-yl)pyridin-2-yl)pyrrolidin-2-one], the IC50 is under 0.01 µM in assay [1] (setting [3]) and 0.1 to 1 µM in assay [2] (setting [4]).
As to `CC1(C)C[C@H]2N(c3cccc([C@H]4CCNC4)n3)c3nc(Nc4ccc(N5CCOCC5)cc4)ncc3[C@@]2(C)CO1` (single isomer, unassigned) [Example 542], the IC50 is under 0.01 µM in assay [1] (setting [3]) and 0.1 to 1 µM in assay [2] (setting [4]).
As for `CC1(C)C[C@H]2N(c3cccc(N=S(C)(C)=O)n3)c3nc(Nc4ccc([C@H]5CCCN5)nc4)ncc3[C@@]2(C)CO1` (single isomer, unassigned) [Example 212], the IC50 was under 0.01 µM in assay [1] (Wee1 kinase domain, ADP-Glo) and 0.1 to 1 µM in assay [2] (A-427, pCDC2 MSD).
For the compound `CC1(C)C[C@H]2N(c3cccc(N4CCCC4=O)n3)c3nc(Nc4ccc(O[C@H]5CCNC5)cc4)ncc3[C@@]2(C)CO1` [Example 620, 1-(6-((4bR,8aR)-4b,7,7-trimethyl-2-((4-(((S)-pyrrolidin-3-yl)oxy)phenyl)amino)-4b,7,8,8a-tetrahydropyrano[3′,4′:4,5]pyrrolo[2,3-d]pyrimidin-9(5H)-yl)pyridin-2-yl)pyrrolidin-2-one], the IC50 was under 0.01 µM in assay [1] (setting [3]) and under 0.1 µM in assay [2] (setting [4]).
